Source: paper PMC5760531, “Action Potential Recording and Pro-arrhythmia Risk Analysis in Human Ventricular Trabeculae” (Frontiers in Physiology, 2018)

Columns and labels:
[1] = system: human ventricular trabeculae; assay: Action potential recording and pro-arrhythmic score analysis in human ventricular trabeculae (hVT);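 note: sharp microelectrode action potential recordings at 37°C in Tyrode-perfused trabeculae, 4 cumulative concentrations each applied 31 min, values averaged over last 30 APs, vehicle 0.1% DMSO as control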
[2] = human free (unbound) effective therapeutic plasma concentration used to calculate multiples; cited from earlier work
[3] = 1Hz, 1.6-FOLD free ETPC (0.006µM)
[4] = 1Hz, 17-FOLD free ETPC (0.006µM)
[5] = 1Hz, 167-FOLD free ETPC (0.006µM)
[6] = 1Hz, 1667-FOLD free ETPC (0.006µM)
[7] = 2Hz, 1.6-FOLD free ETPC (0.006µM)
[8] = 2Hz, 17-FOLD free ETPC (0.006µM)
[9] = 2Hz, 167-FOLD free ETPC (0.006µM)
[10] = 2Hz, 1667-FOLD free ETPC (0.006µM)

COc1cc2nc(N(C)CCCNC(=O)C3CCCO3)nc(N)c2cc1OC (stereo not shown) [ALFUZOSIN, Alfuzosin]
AMAX [1, 3]: 110
AMAX percentage change compared to vehicle control [1, 3]: 2%
APD30 [1, 3]: 163
APD30 percentage change compared to vehicle control [1, 3]: 4%
APD50 [1, 3]: 214
APD50 percentage change compared to vehicle control [1, 3]: 4%
APD90 [1, 3]: 287
APD90 percentage change compared to vehicle control [1, 3]: 3%
Alternans [1, 3]: 0.33
Alternans percentage change compared to vehicle control [1, 3]: -14%
Beat Escape [1, 3]: 0
Beat Escape percentage change compared to vehicle control [1, 3]: 0%
EADs [1, 3]: 0
EADs percentage change compared to vehicle control [1, 3]: 0%
ERP [1, 3]: 0.42
ERP percentage change compared to vehicle control [1, 3]: 0%
Max Dispersion [1, 3]: 2.40
Max Dispersion percentage change compared to vehicle control [1, 3]: 28%
RMP [1, 3]: -88
RMP percentage change compared to vehicle control [1, 3]: 3%
Refractoriness Escape [1, 3]: 0
Refractoriness Escape percentage change compared to vehicle control [1, 3]: 0%
STV [1, 3]: 0.30
STV percentage change compared to vehicle control [1, 3]: 9%
Triangulation [1, 3]: 123
Triangulation percentage change compared to vehicle control [1, 3]: -1%
AMAX [1, 4]: 110
AMAX percentage change compared to vehicle control [1, 4]: 1%
APD30 [1, 4]: 159
APD30 percentage change compared to vehicle control [1, 4]: 2%
APD50 [1, 4]: 209
APD50 percentage change compared to vehicle control [1, 4]: 2%
APD90 [1, 4]: 284
APD90 percentage change compared to vehicle control [1, 4]: 1%
Alternans [1, 4]: 0.34
Alternans percentage change compared to vehicle control [1, 4]: -13%
Beat Escape [1, 4]: 0
Beat Escape percentage change compared to vehicle control [1, 4]: 0%
EADs [1, 4]: 0
EADs percentage change compared to vehicle control [1, 4]: 0%
ERP [1, 4]: 0.44
ERP percentage change compared to vehicle control [1, 4]: 4%
Max Dispersion [1, 4]: 2.18
Max Dispersion percentage change compared to vehicle control [1, 4]: 16%
RMP [1, 4]: -88
RMP percentage change compared to vehicle control [1, 4]: 3%
Refractoriness Escape [1, 4]: 0
Refractoriness Escape percentage change compared to vehicle control [1, 4]: 0%
STV [1, 4]: 0.26
STV percentage change compared to vehicle control [1, 4]: -6%
Triangulation [1, 4]: 126
Triangulation percentage change compared to vehicle control [1, 4]: 1%
AMAX [1, 5]: 110
AMAX percentage change compared to vehicle control [1, 5]: 2%
APD30 [1, 5]: 161
APD30 percentage change compared to vehicle control [1, 5]: 3%
APD50 [1, 5]: 213
APD50 percentage change compared to vehicle control [1, 5]: 4%
APD90 [1, 5]: 291
APD90 percentage change compared to vehicle control [1, 5]: 4%
Alternans [1, 5]: 0.45
Alternans percentage change compared to vehicle control [1, 5]: 16%
Beat Escape [1, 5]: 0
Beat Escape percentage change compared to vehicle control [1, 5]: 0%
EADs [1, 5]: 0
EADs percentage change compared to vehicle control [1, 5]: 0%
ERP [1, 5]: 0.44
ERP percentage change compared to vehicle control [1, 5]: 4%
Max Dispersion [1, 5]: 2.43
Max Dispersion percentage change compared to vehicle control [1, 5]: 29%
RMP [1, 5]: -89
RMP percentage change compared to vehicle control [1, 5]: 4%
Refractoriness Escape [1, 5]: 0
Refractoriness Escape percentage change compared to vehicle control [1, 5]: 0%
STV [1, 5]: 0.29
STV percentage change compared to vehicle control [1, 5]: 7%
Triangulation [1, 5]: 130
Triangulation percentage change compared to vehicle control [1, 5]: 5%
AMAX [1, 6]: 109
AMAX percentage change compared to vehicle control [1, 6]: 1%
APD30 [1, 6]: 162
APD30 percentage change compared to vehicle control [1, 6]: 4%
APD50 [1, 6]: 222
APD50 percentage change compared to vehicle control [1, 6]: 9%
APD90 [1, 6]: 319
APD90 percentage change compared to vehicle control [1, 6]: 14%
Alternans [1, 6]: 0.72
Alternans percentage change compared to vehicle control [1, 6]: 86%
Beat Escape [1, 6]: 0
Beat Escape percentage change compared to vehicle control [1, 6]: 0%
EADs [1, 6]: 0
EADs percentage change compared to vehicle control [1, 6]: 0%
ERP [1, 6]: 0.47
ERP percentage change compared to vehicle control [1, 6]: 12%
Max Dispersion [1, 6]: 3.05
Max Dispersion percentage change compared to vehicle control [1, 6]: 63%
RMP [1, 6]: -88
RMP percentage change compared to vehicle control [1, 6]: 4%
Refractoriness Escape [1, 6]: 0
Refractoriness Escape percentage change compared to vehicle control [1, 6]: 0%
STV [1, 6]: 0.46
STV percentage change compared to vehicle control [1, 6]: 75%
Triangulation [1, 6]: 158
Triangulation percentage change compared to vehicle control [1, 6]: 28%
AMAX [1, 7]: 109
AMAX percentage change compared to vehicle control [1, 7]: 1%
APD30 [1, 7]: 120
APD30 percentage change compared to vehicle control [1, 7]: 2%
APD50 [1, 7]: 163
APD50 percentage change compared to vehicle control [1, 7]: 3%
APD90 [1, 7]: 234
APD90 percentage change compared to vehicle control [1, 7]: 2%
Alternans [1, 7]: 0.92
Alternans percentage change compared to vehicle control [1, 7]: 6%
Beat Escape [1, 7]: 0
Beat Escape percentage change compared to vehicle control [1, 7]: 0%
EADs [1, 7]: 0
EADs percentage change compared to vehicle control [1, 7]: 0%
ERP [1, 7]: 0.45
ERP percentage change compared to vehicle control [1, 7]: 1%
Max Dispersion [1, 7]: 3.95
Max Dispersion percentage change compared to vehicle control [1, 7]: 12%
RMP [1, 7]: -87
RMP percentage change compared to vehicle control [1, 7]: 2%
Refractoriness Escape [1, 7]: 0
Refractoriness Escape percentage change compared to vehicle control [1, 7]: 0%
STV [1, 7]: 0.64
Triangulation [1, 7]: 115
Triangulation percentage change compared to vehicle control [1, 7]: 1%
AMAX [1, 8]: 110
AMAX percentage change compared to vehicle control [1, 8]: 2%
APD30 [1, 8]: 116
APD30 percentage change compared to vehicle control [1, 8]: -1%
APD50 [1, 8]: 160
APD50 percentage change compared to vehicle control [1, 8]: 1%
APD90 [1, 8]: 233
APD90 percentage change compared to vehicle control [1, 8]: 1%
Alternans [1, 8]: 0.99
Alternans percentage change compared to vehicle control [1, 8]: 14%
Beat Escape [1, 8]: 0
Beat Escape percentage change compared to vehicle control [1, 8]: 0%
EADs [1, 8]: 0
EADs percentage change compared to vehicle control [1, 8]: 0%
ERP [1, 8]: 0.47
ERP percentage change compared to vehicle control [1, 8]: 4%
Max Dispersion [1, 8]: 3.93
Max Dispersion percentage change compared to vehicle control [1, 8]: 11%
RMP [1, 8]: -88
RMP percentage change compared to vehicle control [1, 8]: 4%
Refractoriness Escape [1, 8]: 0
Refractoriness Escape percentage change compared to vehicle control [1, 8]: 0%
STV [1, 8]: 0.66
Triangulation [1, 8]: 118
Triangulation percentage change compared to vehicle control [1, 8]: 3%
AMAX [1, 9]: 110
AMAX percentage change compared to vehicle control [1, 9]: 2%
APD30 [1, 9]: 115
APD30 percentage change compared to vehicle control [1, 9]: -1%
APD50 [1, 9]: 161
APD50 percentage change compared to vehicle control [1, 9]: 2%
APD90 [1, 9]: 238
APD90 percentage change compared to vehicle control [1, 9]: 3%
Alternans [1, 9]: 0.83
Alternans percentage change compared to vehicle control [1, 9]: -4%
Beat Escape [1, 9]: 0
Beat Escape percentage change compared to vehicle control [1, 9]: 0%
EADs [1, 9]: 0
EADs percentage change compared to vehicle control [1, 9]: 0%
ERP [1, 9]: 0.48
ERP percentage change compared to vehicle control [1, 9]: 7%
Max Dispersion [1, 9]: 2.88
Max Dispersion percentage change compared to vehicle control [1, 9]: -18%
RMP [1, 9]: -88
RMP percentage change compared to vehicle control [1, 9]: 3%
Refractoriness Escape [1, 9]: 0
Refractoriness Escape percentage change compared to vehicle control [1, 9]: 0%
STV [1, 9]: 0.63
Triangulation [1, 9]: 123
Triangulation percentage change compared to vehicle control [1, 9]: 8%
AMAX [1, 10]: 108
AMAX percentage change compared to vehicle control [1, 10]: 0%
APD30 [1, 10]: 115
APD30 percentage change compared to vehicle control [1, 10]: -1%
APD50 [1, 10]: 165
APD50 percentage change compared to vehicle control [1, 10]: 5%
APD90 [1, 10]: 258
APD90 percentage change compared to vehicle control [1, 10]: 12%
Alternans [1, 10]: 0.78
Alternans percentage change compared to vehicle control [1, 10]: -10%
Beat Escape [1, 10]: 0
Beat Escape percentage change compared to vehicle control [1, 10]: 0%
EADs [1, 10]: 0
EADs percentage change compared to vehicle control [1, 10]: 0%
ERP [1, 10]: 0.50
ERP percentage change compared to vehicle control [1, 10]: 11%
Max Dispersion [1, 10]: 2.72
Max Dispersion percentage change compared to vehicle control [1, 10]: -23%
RMP [1, 10]: -87
RMP percentage change compared to vehicle control [1, 10]: 2%
Refractoriness Escape [1, 10]: 0
Refractoriness Escape percentage change compared to vehicle control [1, 10]: 0%
STV [1, 10]: 0.55
Triangulation [1, 10]: 142
Triangulation percentage change compared to vehicle control [1, 10]: 26%
Free ETPC [2]: 0.006 µM
